Assay results as given in patent publication US20230276831A1, “Food/Beverage Article” (Kikkoman Corporation, priority 2020, published 2023).

Tests used:
[1] = system: Lactobacillus acidipiscis NBRC 102164; test: Antimicrobial action of licoricidin in liquid seasoning (1), lactic acid bacteria D; format: cell-based; design: key: A: The bacterial count decreases to less than 10% of the bacterial count of the control group.; B: The bacterial count decreases to 10% or more and less than 50% of the bacterial count of the control group.; C: The bacterial count decreases to 50% or more and less than 100% of the bacterial count of control group.; D: The bacterial count is the same as the bacterial count of the control group
Protocol: Commercially available whole soybean soy sauce (produced by Kikkoman Corporation) was electrodialyzed and then concentrated under reduced pressure to obtain soy sauce at a salt concentration of 0% (w/v) and an alcohol concentration of 0% (v/v). Then, salt and/or alcohol was added to the above-mentioned obtained soy sauce, and the mixture was heat-treated to produce soy sauces at salt concentrations and alcohol concentrations shown in the following Table 5. The pHs of the soy sauces were 4.9 to 5.0.
Specifically, components contained in dried bonito was extracted with alcohol and water; sugar, salt, and seasonings were blended with the obtained extract; and the resulting mixture was heated to produce bonito stock. The salt concentration of the obtained bonito stock was 0.2% (w/v), the alcohol concentration was 0.15% (v/v), and the pH was 6.1.
Specifically, Koikuchi soy sauce (produced by Kikkoman Corporation), granulated sugar, potato starch, and water were blended in amounts shown in following Table 7, and the resulting mixture was heated to produce sauce. The salt concentration of the obtained sauce was 5.3% (w/v), the alcohol concentration was 0.8% (v/v), and the pH was 5.0.
(§1) Specifically, the components contained in dried bonito was extracted with water; Koikuchi soy sauce (produced by Kikkoman Corporation), sugar, and salt were blended with the obtained extract; and the resulting mixture was heated to produce Japanese seasoned soup stock. The salt concentration of the obtained Japanese seasoned soup stock was 3% (w/v), the alcohol concentration was 0.4% (v/v), and the pH was 5.5.
Licoricidin (produced by ChemFaces) was added to each of the liquid seasonings produced in the above-mentioned (1) to concentrations of 1 ppm, 5 ppm, 10 ppm, 25 ppm, and 50 ppm. Lactic acid bacteria described in the following Table 9 were then added to 10^6 to 10^7 cells/mL and cultured at 30° C. for 7 days. After the culture, the number of lactic acid bacteria was measured using the GAM agar medium “Nissui”. Liquid seasoning to which licoricidin was not added was used as a control group, and the antimicrobial activity was evaluated in comparison with the number of lactic acid bacteria in the control group. The evaluation was performed using the criterion shown below.
• A: The bacterial count decreases to less than 10% of the bacterial count of the control group. • B: The bacterial count decreases to 10% or more and less than 50% of the bacterial count of the control group. • C: The bacterial count decreases to 50% or more and less than 100% of the bacterial count of control group. • D: The bacterial count is the same as the bacterial count of the control group.

[2] = system: Bacillus coagulans (IFO12714); test: Antimicrobial action of licoricidin on flat sour bacteria in Japanese seasoned soup stock (Test Example 8); format: cell-based; design: key to Evaluation (antimicrobial activity by comparing the pHs): A: There is no change in pH as compared with the control.; B: The pH decreases as compared with the control; details: for pH: Japanese seasoned soup stock (salt 3% (w/v), alcohol 0.4% (v/v), pH 5.2), cultured at 45° C. for 7 days; for Evaluation (antimicrobial activity by comparing the pHs): Japanese seasoned soup stock
Protocol: as §1, with “Specifically,” for “Specifically, the”, “5.2.” for “5.5.”
Licoricidin (produced by ChemFaces) was added to the produced Japanese seasoned soup stock to concentrations of 1 ppm, 5 ppm, 10 ppm, 25 ppm, and 50 ppm. Flat sour bacteria (Bacillus coagulans (IFO12714)) were then added to 10^4 to 10^5 cells/mL and cultured at 45° C. for 7 days. Japanese seasoned soup stock to which licoricidin was not added was used as a control, and the antimicrobial activity was evaluated by comparing the pHs. The evaluation was performed using the following criterion.
• A: There is no change in pH as compared with the control. • B: The pH decreases as compared with the control.

COc1c(CC=C(C)C)c(O)cc2c1C[C@H](c1ccc(O)c(CC=C(C)C)c1O)CO2 [Licoricidin, 4-[(R)-7-hydroxy-5-methoxy-6-(3-methyl-2-butenyl)chroman-3-yl]-2-(3-methyl-2-butenyl)-1,3-benzenediol]
Antimicrobial activity ([1]; Bonito stock (salt 0.2% (w/v), alcohol 0.15% (v/v), pH 6.1), licoricidin 1 ppm): A (The bacterial count decreases to less than 10% of the bacterial count of the control group.)
Antimicrobial activity ([1]; Bonito stock (salt 0.2% (w/v), alcohol 0.15% (v/v), pH 6.1), licoricidin 5 ppm): A (The bacterial count decreases to less than 10% of the bacterial count of the control group.)
Antimicrobial activity ([1]; Bonito stock (salt 0.2% (w/v), alcohol 0.15% (v/v), pH 6.1), licoricidin 10 ppm): A (The bacterial count decreases to less than 10% of the bacterial count of the control group.)
Antimicrobial activity ([1]; Bonito stock (salt 0.2% (w/v), alcohol 0.15% (v/v), pH 6.1), licoricidin 25 ppm): A (The bacterial count decreases to less than 10% of the bacterial count of the control group.)
Antimicrobial activity ([1]; Bonito stock (salt 0.2% (w/v), alcohol 0.15% (v/v), pH 6.1), licoricidin 50 ppm): A (The bacterial count decreases to less than 10% of the bacterial count of the control group.)
Antimicrobial activity ([1]; Japanese seasoned soup stock (salt 3% (w/v), alcohol 0.4% (v/v), pH 5.5), licoricidin 1 ppm): D
Antimicrobial activity ([1]; Japanese seasoned soup stock (salt 3% (w/v), alcohol 0.4% (v/v), pH 5.5), licoricidin 5 ppm): A (The bacterial count decreases to less than 10% of the bacterial count of the control group.)
Antimicrobial activity ([1]; Japanese seasoned soup stock (salt 3% (w/v), alcohol 0.4% (v/v), pH 5.5), licoricidin 10 ppm): A (The bacterial count decreases to less than 10% of the bacterial count of the control group.)
Antimicrobial activity ([1]; Japanese seasoned soup stock (salt 3% (w/v), alcohol 0.4% (v/v), pH 5.5), licoricidin 25 ppm): A (The bacterial count decreases to less than 10% of the bacterial count of the control group.)
Antimicrobial activity ([1]; Japanese seasoned soup stock (salt 3% (w/v), alcohol 0.4% (v/v), pH 5.5), licoricidin 50 ppm): A (The bacterial count decreases to less than 10% of the bacterial count of the control group.)
Antimicrobial activity ([1]; Sauce (salt 5.3% (w/v), alcohol 0.8% (v/v), pH 5.0), licoricidin 1 ppm): C (The bacterial count decreases to 50% or more and less than 100% of the bacterial count of control group.)
Antimicrobial activity ([1]; Sauce (salt 5.3% (w/v), alcohol 0.8% (v/v), pH 5.0), licoricidin 5 ppm): C (The bacterial count decreases to 50% or more and less than 100% of the bacterial count of control group.)
Antimicrobial activity ([1]; Sauce (salt 5.3% (w/v), alcohol 0.8% (v/v), pH 5.0), licoricidin 10 ppm): A (The bacterial count decreases to less than 10% of the bacterial count of the control group.)
Antimicrobial activity ([1]; Sauce (salt 5.3% (w/v), alcohol 0.8% (v/v), pH 5.0), licoricidin 25 ppm): A (The bacterial count decreases to less than 10% of the bacterial count of the control group.)
Antimicrobial activity ([1]; Sauce (salt 5.3% (w/v), alcohol 0.8% (v/v), pH 5.0), licoricidin 50 ppm): A (The bacterial count decreases to less than 10% of the bacterial count of the control group.)
Antimicrobial activity ([1]; Soy sauce, salt 0% (w/v), alcohol 0% (v/v), licoricidin 1 ppm): C (The bacterial count decreases to 50% or more and less than 100% of the bacterial count of control group.)
Antimicrobial activity ([1]; Soy sauce, salt 0% (w/v), alcohol 0% (v/v), licoricidin 5 ppm): C (The bacterial count decreases to 50% or more and less than 100% of the bacterial count of control group.)
Antimicrobial activity ([1]; Soy sauce, salt 0% (w/v), alcohol 0% (v/v), licoricidin 10 ppm): B (The bacterial count decreases to 10% or more and less than 50% of the bacterial count of the control group.)
Antimicrobial activity ([1]; Soy sauce, salt 0% (w/v), alcohol 0% (v/v), licoricidin 25 ppm): A (The bacterial count decreases to less than 10% of the bacterial count of the control group.)
Antimicrobial activity ([1]; Soy sauce, salt 0% (w/v), alcohol 0% (v/v), licoricidin 50 ppm): A (The bacterial count decreases to less than 10% of the bacterial count of the control group.)
Antimicrobial activity ([1]; Soy sauce, salt 4% (w/v), alcohol 0% (v/v), licoricidin 1 ppm): D
Antimicrobial activity ([1]; Soy sauce, salt 4% (w/v), alcohol 0% (v/v), licoricidin 5 ppm): A (The bacterial count decreases to less than 10% of the bacterial count of the control group.)
Antimicrobial activity ([1]; Soy sauce, salt 4% (w/v), alcohol 0% (v/v), licoricidin 10 ppm): A (The bacterial count decreases to less than 10% of the bacterial count of the control group.)
Antimicrobial activity ([1]; Soy sauce, salt 4% (w/v), alcohol 0% (v/v), licoricidin 25 ppm): A (The bacterial count decreases to less than 10% of the bacterial count of the control group.)
Antimicrobial activity ([1]; Soy sauce, salt 4% (w/v), alcohol 0% (v/v), licoricidin 50 ppm): A (The bacterial count decreases to less than 10% of the bacterial count of the control group.)
Antimicrobial activity ([1]; Soy sauce, salt 8% (w/v), alcohol 0% (v/v), licoricidin 1 ppm): C (The bacterial count decreases to 50% or more and less than 100% of the bacterial count of control group.)
Antimicrobial activity ([1]; Soy sauce, salt 8% (w/v), alcohol 0% (v/v), licoricidin 5 ppm): A (The bacterial count decreases to less than 10% of the bacterial count of the control group.)
Antimicrobial activity ([1]; Soy sauce, salt 8% (w/v), alcohol 0% (v/v), licoricidin 10 ppm): A (The bacterial count decreases to less than 10% of the bacterial count of the control group.)
Antimicrobial activity ([1]; Soy sauce, salt 8% (w/v), alcohol 0% (v/v), licoricidin 25 ppm): A (The bacterial count decreases to less than 10% of the bacterial count of the control group.)
Antimicrobial activity ([1]; Soy sauce, salt 8% (w/v), alcohol 0% (v/v), licoricidin 50 ppm): A (The bacterial count decreases to less than 10% of the bacterial count of the control group.)
Antimicrobial activity ([1]; Soy sauce, salt 12% (w/v), alcohol 0% (v/v), licoricidin 1 ppm): D
Antimicrobial activity ([1]; Soy sauce, salt 12% (w/v), alcohol 0% (v/v), licoricidin 5 ppm): A (The bacterial count decreases to less than 10% of the bacterial count of the control group.)
Antimicrobial activity ([1]; Soy sauce, salt 12% (w/v), alcohol 0% (v/v), licoricidin 10 ppm): A (The bacterial count decreases to less than 10% of the bacterial count of the control group.)
Antimicrobial activity ([1]; Soy sauce, salt 12% (w/v), alcohol 0% (v/v), licoricidin 25 ppm): A (The bacterial count decreases to less than 10% of the bacterial count of the control group.)
Antimicrobial activity ([1]; Soy sauce, salt 12% (w/v), alcohol 0% (v/v), licoricidin 50 ppm): A (The bacterial count decreases to less than 10% of the bacterial count of the control group.)
pH ([2]; licoricidin 1 ppm): 4.1
pH ([2]; licoricidin 5 ppm): 4.1
pH ([2]; licoricidin 10 ppm): 5.3
pH ([2]; licoricidin 25 ppm): 5.3
pH ([2]; licoricidin 50 ppm): 5.2
Evaluation (antimicrobial activity by comparing the pHs) ([2]; licoricidin 1 ppm): B
Evaluation (antimicrobial activity by comparing the pHs) ([2]; licoricidin 5 ppm): B
Evaluation (antimicrobial activity by comparing the pHs) ([2]; licoricidin 10 ppm): A
Evaluation (antimicrobial activity by comparing the pHs) ([2]; licoricidin 25 ppm): A
Evaluation (antimicrobial activity by comparing the pHs) ([2]; licoricidin 50 ppm): A
Antimicrobial activity to flat sour bacteria ([2]; conclusion of Test Example 8): exhibited antimicrobial activity
